One test deals with Str. pneumoniae A-9585. Description: MIC, tube dilution, Streptococcus pneumoniae A9585. The test is classed as cell-based. The settings on record: overnight 37° C., Nutrient Broth; for MIC: Streptococcus pneumoniae, A9585, Str. pneumoniae A9585, read-out: Minimum Inhibitory Concentration (M.I.C.). From the text:
(§1) Representative compounds of the present invention were subjected to in vitro antibiotic screening against a variety of microorganisms.

The subject of the next test is Ser. marcescens A-20019. Description: MIC, tube dilution, Serratia marcescens A20019. The settings on record: overnight 37° C.; for MIC: Serratia marcescens, A20019, Serratia marcescens A20019, read-out: Minimum Inhibitory Concentration (M.I.C.). It is filed as cell-based.
Source text: as §1

For a further test, the system named is Pr. mirabilis A-9900. Briefly: MIC, tube dilution, Proteus mirabilis A9900. It is filed as cell-based. The settings on record: overnight 37° C.; for MIC: Proteus mirabilis, A9900, Proteus mirabilis A9900, read-out: Minimum Inhibitory Concentration (M.I.C.).
Source text: as §1

The next test concerns S. aureus A9537. Briefly: In vivo protection of mice, lethal infection with S. aureus A9537. As to conditions: IM, 2 treatments; for ED50: Staphylococcus aureus, A9537, im, read-out: PD50. The method, then: Representative compounds of the present invention were also tested in vivo in mice and their PD50 (dose of compound in mg/kg required to protect 50% of the treated mice against an otherwise lethal infection of a micro-organism) values determined with respect to the test organisms shown below.

Another test deals with Pr. morganii A-15153. Description: MIC, tube dilution, Proteus morganii A15153. The test is classed as cell-based. As to conditions: overnight 37° C.; for MIC: Morganella morganii, A15153, Proteus morganii A15153, read-out: Minimum Inhibitory Concentration (M.I.C.).
Source text: as §1

The subject of a further test is Ps. aeruginosa A-9843A. Description: MIC, tube dilution, Pseudomonas aeruginosa A9843A. The settings on record: overnight 37° C.; for MIC: Pseudomonas aeruginosa, A9843A, read-out: Minimum Inhibitory Concentration (M.I.C.), Pseudomonas aeruginosa A9843A. It is filed as cell-based.
Source text: as §1

The next test has as its system Str. pyogenes A-9604. Briefly: MIC, tube dilution, Streptococcus pyogenes A9604. The test is classed as cell-based. The settings on record: overnight 37° C., Nutrient Broth; for MIC: Streptococcus pyogenes, A9604, Str. pyogenes A9604, read-out: Minimum Inhibitory Concentration (M.I.C.).
Source text: as §1

For the next test, the system named is E. coli A-15119. Briefly: MIC, tube dilution, Escherichia coli A15119. It is filed as cell-based. As to conditions: overnight 37° C.; for MIC: Escherichia coli, A15119, E. coli A15119, read-out: Minimum Inhibitory Concentration (M.I.C.).
Source text: as §1

Test [1] relates to Staph. aureus (Meth-Res) A-15097. Description: MIC, tube dilution, Staphylococcus aureus A15097 (Meth-Res). As to conditions: Staph. aureus A15097 (Meth-Res), overnight 37° C.; for MIC: Staphylococcus aureus, read-out: Minimum Inhibitory Concentration (M.I.C.). It is filed as cell-based.
Source text: as §1

The test system of a further test is Ent. cloacae A-9656. Description: MIC, tube dilution, Enterobacter cloacae A9656. The test is classed as cell-based. The settings on record: overnight 37° C.; for MIC: Enterobacter cloacae, A9656, Enterobacter cloacae A9656, read-out: Minimum Inhibitory Concentration (M.I.C.).
Source text: as §1

The test system of another test is Proteus rettgeri A21203. Description: MIC, tube dilution, Proteus rettgeri A21203. The test is classed as cell-based. As to conditions: overnight 37° C.; for MIC: Providencia rettgeri, A21203, Proteus rettgeri A21203, read-out: Minimum Inhibitory Concentration (M.I.C.).
Source text: as §1

Test [2] concerns Staph. aureus (Pen-Res) A-9606. Description: MIC, tube dilution, Staphylococcus aureus A9606 (Pen-Res). The test is classed as cell-based. The settings on record: Staph. aureus A9606 (Pen-Res), overnight 37° C.; for MIC: Staphylococcus aureus, read-out: Minimum Inhibitory Concentration (M.I.C.).
Source text: as §1

The test system of the next test is Staph. aureus A-9537. Briefly: MIC, tube dilution, Staphylococcus aureus A9537. It is filed as cell-based. The settings on record: overnight 37° C., Nutrient Broth; for MIC: Staphylococcus aureus, A9537, Staph. aureus A9537, read-out: Minimum Inhibitory Concentration (M.I.C.).
Source text: as §1

The subject of another test is E. coli A-20341-1. Briefly: MIC, tube dilution, Escherichia coli A20341-1. It is filed as cell-based.
Source text: as §1

Another test relates to K. pneumoniae A-15130. Description: MIC, tube dilution, Klebsiella pneumoniae A15130. It is filed as cell-based. As to conditions: overnight 37° C.; for MIC: Klebsiella pneumoniae, A15130, K. pneumoniae A15130, read-out: Minimum Inhibitory Concentration (M.I.C.).
Source text: as §1

A further test relates to Ps. aeruginosa A-21213. Briefly: MIC, tube dilution, Pseudomonas aeruginosa A21213. The test is classed as cell-based. As to conditions: overnight 37° C.; for MIC: read-out: Minimum Inhibitory Concentration (M.I.C.).
Source text: as §1

Test [3] concerns Klebsiella species A20468. Briefly: MIC, tube dilution, Klebsiella species A20468. The settings on record: Klebsiella species (K. pneumoniae) A20468, overnight 37° C.; for MIC: read-out: Minimum Inhibitory Concentration (M.I.C.). It is filed as cell-based.
Source text: as §1

The subject of test [4] is Staph. aureus A-9537 and 50% serum. Description: MIC, tube dilution, Staph. aureus A9537 + 50% serum. The test is classed as cell-based, Staphylococcus aureus. As to conditions: overnight 37° C.; for MIC: Staphylococcus aureus, read-out: Minimum Inhibitory Concentration (M.I.C.).
Source text: as §1

For a further test, the system named is Ent. cloacae A-9659. Description: MIC, tube dilution, Enterobacter cloacae A9659. As to conditions: overnight 37° C.; for MIC: Enterobacter cloacae, A9659, Enterobacter cloacae A9659, read-out: Minimum Inhibitory Concentration (M.I.C.). It is filed as cell-based.
Source text: as §1

Another test deals with Str. faecalis A-20688. Briefly: MIC, tube dilution, Streptococcus faecalis A20688. It is filed as cell-based. The settings on record: overnight 37° C.; for MIC: Enterococcus faecalis, A20688, Str. faecalis A20688, read-out: Minimum Inhibitory Concentration (M.I.C.).
Source text: as §1

The subject of the next test is Proteus vulgaris A21559. Briefly: MIC, tube dilution, Proteus vulgaris A21559. The settings on record: overnight 37° C.; for MIC: Proteus vulgaris, A21559, Proteus vulgaris A21559, read-out: Minimum Inhibitory Concentration (M.I.C.). It is filed as cell-based.
Source text: as §1

The text below walks through data of patent US4272437A, “Antibacterial agents, and 4-thio azetidinone intermediates” (priority 1979, dated 1981).

In brackets after ≈: the same amount, converted by molar mass. Like-named read-outs stand apart in the source and are kept apart here. Where only a bound is given, the exact number is not on record here.

Turning to `CC1=C(C(=O)O)N2C(=O)[C@H]([C@@H]3COC(C)(C)O3)[C@H]2S1` (relative stereo) [Example 103, (4'R,5R,6S and 4'S,5S,6R) 6-(2',2'-Dimethyl-1',3'-dioxolan-4'-yl)-2-methylpenem-3-carboxylic Acid (Isomer C)], the MIC was 63 µg/mL (≈ 221 µM) with Str. pneumoniae A-9585; greater than 63 µg/mL in the test on Ser. marcescens A-20019; 63 µg/mL (≈ 221 µM) in the test on Pr. mirabilis A-9900; greater than 63 µg/mL with Pr. morganii A-15153; 63 µg/mL (≈ 221 µM) with Ps. aeruginosa A-9843A; 63 µg/mL (≈ 221 µM) in the test on Str. pyogenes A-9604. In addition, the MIC was greater than 63 µg/mL in the test with E. coli A-15119; greater than 63 µg/mL in test [1]; greater than 63 µg/mL in the test with Ent. cloacae A-9656; greater than 63 µg/mL in the test with Proteus rettgeri A21203; greater than 63 µg/mL in test [2]; greater than 63000 ng/mL with Staph. aureus A-9537. Also, the MIC in the test with E. coli A-20341-1 (Escherichia coli, A203411, E. coli A20341-1; overnight 37° C.; read-out: Minimum Inhibitory Concentration (M.I.C.)) was greater than 63 µg/mL; with K. pneumoniae A-15130, greater than 63 µg/mL; in the test on Ps. aeruginosa A-21213 (Pseudomonas aeruginosa, A21213, Pseudomonas aeruginosa A21213) it was 63 µg/mL (≈ 221 µM); in test [3], greater than 63 µg/mL; in test [4] it was greater than 32 µg/mL; with Ent. cloacae A-9659, greater than 63 µg/mL. Further, the MIC in the test with Str. faecalis A-20688 and in the test with Proteus vulgaris A21559 was greater than 63 µg/mL in each case. Moreover, the ED50 with S. aureus A9537 (8 × 10^5 organisms) is greater than 5 mg/kg.

On to `NC1CCC(C2=C(C(=O)O)N3C(=O)C[C@H]3S2)C1` (single isomer, unassigned) [98 isomer B, 2-(3-Aminocyclopentyl)-penem-3-carboxylic acid], for which the “Minimum Inhibitory Concentration (M.I.C.)” value in the test on Str. pneumoniae A-9585 (Str. pneumoniae A9585) was “.008 µg/mL”; with Ser. marcescens A-20019 (Serratia marcescens A20019), 2 µg/mL; in the test with Pr. mirabilis A-9900 (Proteus mirabilis A9900), 1 µg/mL; in the test with Pr. morganii A-15153 (Proteus morganii A15153) it was 4 µg/mL; in the test on Ps. aeruginosa A-9843A (Pseudomonas aeruginosa A9843A), 63 µg/mL; in the test with Str. pyogenes A-9604 (Str. pyogenes A9604), “.008 µg/mL”. The “Minimum Inhibitory Concentration (M.I.C.)” value is 1 µg/mL in the test on E. coli A-15119 (E. coli A15119); greater than 63 µg/mL in test [1]; 2 µg/mL with Ent. cloacae A-9656 (Enterobacter cloacae A9656); 1 µg/mL in the test on Proteus rettgeri A21203 (Proteus rettgeri A21203); greater than 63 µg/mL in test [2]; “.03 µg/mL” in the test with Staph. aureus A-9537 (Staph. aureus A9537). The “Minimum Inhibitory Concentration (M.I.C.)” value was 16 µg/mL with E. coli A-20341-1 (E. coli A20341-1; overnight 37° C.); 4 µg/mL in the test on K. pneumoniae A-15130 (K. pneumoniae A15130); greater than 63 µg/mL in the test on Ps. aeruginosa A-21213 (Pseudomonas aeruginosa A21213); greater than 63 µg/mL in [3]; “.25 µg/mL” in test [4]; 8 µg/mL in the test with Ent. cloacae A-9659 (Enterobacter cloacae A9659). For the same compound, the “Minimum Inhibitory Concentration (M.I.C.)” value with Str. faecalis A-20688 (Str. faecalis A20688) and with Proteus vulgaris A21559 (Proteus vulgaris A21559) was 8 µg/mL in each case. For the same compound, the PD50 with S. aureus A9537 (9.1 × 10^5 organisms, listed as Ex. 98 (isomer B)) was found to be 0.12 mg/kg/treatment.

With `NCc1ccc(C2=C(C(=O)O)N3C(=O)CC3S2)cc1` (stereo not drawn) [Example 74, 2-(p-Aminomethylphenyl)penem-3-carboxylic Acid], the MIC in the test with Str. pneumoniae A-9585 is 0.001 µg/mL (≈ 0.00362 µM); with Ser. marcescens A-20019, 16 µg/mL (≈ 57.9 µM); with Pr. mirabilis A-9900, 4 µg/mL (≈ 14.5 µM); with Pr. morganii A-15153, 16 µg/mL (≈ 57.9 µM); with Ps. aeruginosa A-9843A it was greater than 125 µg/mL; in the test with Str. pyogenes A-9604, 0.001 µg/mL (≈ 0.00362 µM). The MIC was determined as 8 µg/mL (≈ 29 µM) in the test on E. coli A-15119; 32 µg/mL (≈ 116 µM) in [1]; 32 µg/mL (≈ 116 µM) in the test with Ent. cloacae A-9656; 16 µg/mL (≈ 57.9 µM) in the test on Proteus rettgeri A21203; 32 µg/mL (≈ 116 µM) in [2]; 4 ng/mL (≈ 0.0145 µM) in the test on Staph. aureus A-9537. Further, the MIC with E. coli A-20341-1 (Escherichia coli, A203411; E. coli A20341-1; overnight 37° C.; read-out: Minimum Inhibitory Concentration (M.I.C.)) was 125 µg/mL (≈ 452 µM); in the test with K. pneumoniae A-15130, 32 µg/mL (≈ 116 µM); in the test with Ps. aeruginosa A-21213 (Pseudomonas aeruginosa A21213) it was greater than 125 µg/mL; in test [3], greater than 125 µg/mL; in test [4], 2 µg/mL; in the test with Ent. cloacae A-9659, 32 µg/mL (≈ 116 µM). Moreover, the MIC in the test on Str. faecalis A-20688 was found to be 1 µg/mL (≈ 3.62 µM); in the test on Proteus vulgaris A21559, 16 µg/mL (≈ 57.9 µM). Moreover, the ED50 with S. aureus A9537 (7.3 × 10^5 organisms) is 0.82 mg/kg.
